The target of assay [1] is T1, human erythrocyte acetylcholinesterase (AChE) (Homo sapiens, UniProt P22303).
T1 construct: 400-fold diluted solution of haemolysed erythrocytes or 200-fold diluted plasma; from tissue; host or cells: haemolysed erythrocytes from blood of healthy human donors
The assay can be described thus: biochemical. It is filed as biochemical. On the procedure: (§1) Blood samples were obtained from healthy donors of Blood Donation Centre in Lodz and The Voievodal Specialised Hospital in Lodz. The preparation of erythrocytes for AChE activity measurements and plasma for the assessment of BuChE activity has been described previously.
(§2) The biological sample, consisting of a 400-fold diluted solution of haemolysed erythrocytes or 200-fold diluted plasma was incubated for 15 min (37 °C) with DTNB; the tested compound was then added in a volume of 10 µL. The enzymatic reaction was initiated by addition of a reaction substrate (ATC or BTC).

Assay [2] concerns the target human plasma butyrylcholinesterase (BuChE) (Homo sapiens, UniProt P06276). Briefly: biochemical. On the procedure: as §1, §2
Another assay addresses BuChE in human plasma (Homo sapiens, UniProt P06276). How it is done: Due to the high level of variation in the individual concentration and activity of BuChE in human plasma, 32 biological samples were studied.
The kinetic parameters of enzymatic reactions were estimated using linear regression (Hanes-Woolf plots). The following parameters were calculated: the maximal velocity (Vmax) and the Michaelis constant (Km).
The kinetic parameters of BuChE reactions were obtained in a series of experiments using decreasing concentrations of BTC. The curves were analysed using the Hanes-Woolf equation, in which the ratio of the initial substrate concentration [S] to the reaction velocity v is plotted against [S].

Each structure is given as a SMILES string. Where “and” joins values, the source holds several entries; their conditions need not be identical. Equal entries are not always repeated.

T1 sequence (P22303 other isoform, or with tags, fused parts or gaps): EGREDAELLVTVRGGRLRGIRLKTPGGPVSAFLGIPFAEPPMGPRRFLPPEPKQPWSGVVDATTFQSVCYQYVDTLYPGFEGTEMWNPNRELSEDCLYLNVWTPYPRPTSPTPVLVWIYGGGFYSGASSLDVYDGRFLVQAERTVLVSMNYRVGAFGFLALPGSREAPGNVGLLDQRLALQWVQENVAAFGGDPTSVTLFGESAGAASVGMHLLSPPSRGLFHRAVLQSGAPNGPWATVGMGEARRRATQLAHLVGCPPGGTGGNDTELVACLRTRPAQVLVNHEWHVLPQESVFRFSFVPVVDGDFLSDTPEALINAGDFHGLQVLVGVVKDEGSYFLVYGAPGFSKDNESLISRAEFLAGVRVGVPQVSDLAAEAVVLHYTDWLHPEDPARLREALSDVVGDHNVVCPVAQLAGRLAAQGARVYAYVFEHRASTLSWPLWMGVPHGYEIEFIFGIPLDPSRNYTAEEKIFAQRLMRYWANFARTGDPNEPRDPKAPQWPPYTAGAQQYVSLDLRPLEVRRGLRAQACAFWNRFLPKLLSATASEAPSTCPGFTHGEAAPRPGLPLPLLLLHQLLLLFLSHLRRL
Chain of BuChE in human plasma (P06276 29-602): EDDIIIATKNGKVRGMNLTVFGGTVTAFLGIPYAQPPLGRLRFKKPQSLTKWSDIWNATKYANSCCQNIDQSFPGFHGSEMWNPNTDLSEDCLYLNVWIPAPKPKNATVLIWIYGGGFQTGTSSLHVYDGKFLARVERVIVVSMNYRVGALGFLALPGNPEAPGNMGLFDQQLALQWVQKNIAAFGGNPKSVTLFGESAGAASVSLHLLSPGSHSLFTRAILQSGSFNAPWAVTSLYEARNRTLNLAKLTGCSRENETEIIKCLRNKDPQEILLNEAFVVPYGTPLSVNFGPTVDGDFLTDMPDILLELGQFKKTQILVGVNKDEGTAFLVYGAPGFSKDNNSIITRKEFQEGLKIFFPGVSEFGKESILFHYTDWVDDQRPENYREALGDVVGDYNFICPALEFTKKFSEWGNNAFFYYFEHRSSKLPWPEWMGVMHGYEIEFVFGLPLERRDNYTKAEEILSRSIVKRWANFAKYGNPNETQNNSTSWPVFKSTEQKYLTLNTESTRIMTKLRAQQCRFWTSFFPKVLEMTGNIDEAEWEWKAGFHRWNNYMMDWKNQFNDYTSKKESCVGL
Chain of human plasma butyrylcholinesterase (BuChE) (P06276 29-602): as above

In the case of `Cc1ncc(C)n2nc(-c3ccn4cc(-c5ccccc5)nc4n3)nc12` [CPL500036-02], the “maximal inhibition of AChE” value in assay [1] (concentration range 0.01−100 µmol/L, vs control (100% of activity), listed as compound 2) is 34.87 ± 1.65% and ~34.87%.

With `OCCOCCN1CCN(C2=Nc3ccccc3Sc3ccccc32)CC1` [Quetiapine], the IC50 in assay [1] is more than 100 µM; in assay [2], 6.08 ± 1.64 µM. In addition, the inhibition at 100 µM in assay [1] (read-out: maximal inhibitory effect against AChE) was found to be 8.82 ± 1.68%. The “type of BuChE inhibition” value on BuChE in human plasma (from Km and Vmax with and without inhibitor at IC50 concentration) is listed as “mixed inhibition”. Besides, at BuChE in human plasma (inhibitor at IC50 concentration, substrate BTC, mean ± SD), the “Vmax(i) (Vmax of the reactions with inhibitor)” value came out at 0.137 ± 0.036 A/min.

For the origin of these results see publication PMC7534323 (Journal of Enzyme Inhibition and Medicinal Chemistry, 2020).
